Measured values reported in the NIST ThermoML archive (doi:10.1021/je100581m).

Assay: xn = mol fraction of the nth substance listed
Details: Liquid, Vibrating tube method

C=CC(C)(O)CCC=C(C)C (stereo not given) [3,7-dimethyl-1,6-octadien-3-ol] + CCO
mass density [kg/m3]
Details	x2 = 0	x2 = 0.1129	x2 = 0.1935	x2 = 0.3045	x2 = 0.4023	x2 = 0.5121	x2 = 0.6055	x2 = 0.7008	x2 = 0.8009	x2 = 0.9009
283.15 K, 100 kPa	869.2	866.8	865.6	862.7	859.9	855.3	850.3	843.1	832.7	818.2
283.15 K, 5000 kPa	872.3	869.9	868.7	866	863.1	858.5	853.5	846.5	836.3	822
283.15 K, 10000 kPa	875.2	872.9	871.7	869	866.1	861.6	856.8	849.7	839.6	825.5
283.15 K, 15000 kPa	878.2	875.9	874.8	872.1	869.2	864.8	860.1	853	843.1	829.2
283.15 K, 20000 kPa	881	878.8	877.6	874.9	872.1	867.7	862.9	856.1	846.3	832.5
298.15 K, 100 kPa	856.9	854.5	853.4	850.5	847.6	843	838	830.9	820.6	805.9
298.15 K, 5000 kPa	860.1	857.8	856.7	853.9	851	846.5	841.4	834.6	824.4	809.9
298.15 K, 10000 kPa	863.5	861.1	860	857.2	854.4	850	845.1	838.2	828.1	813.9
298.15 K, 15000 kPa	866.6	864.3	863.2	860.5	857.7	853.2	848.4	841.6	831.7	817.7
298.15 K, 20000 kPa	869.6	867.4	866.3	863.6	860.8	856.4	851.7	844.9	835.1	821.3
313.15 K, 100 kPa	844.1	841.7	840.6	837.8	834.7	830.2	825.3	818	807.9	793.2
313.15 K, 5000 kPa	847.8	845.4	844.4	841.6	838.6	834.1	829.3	822.3	812.1	797.7
313.15 K, 10000 kPa	851.3	849	847.9	845.2	842.3	837.8	833.1	826.1	816.1	801.9
313.15 K, 15000 kPa	854.8	852.5	851.4	848.7	845.8	841.4	836.7	829.8	820	806
313.15 K, 20000 kPa	858.1	855.8	854.8	852.1	849.2	844.9	840.2	833.4	823.7	809.8
328.15 K, 100 kPa	831.3	828.9	827.8	824.9	821.8	817.3	812.3	805.2	794.9	780.2
328.15 K, 5000 kPa	835.2	832.9	831.8	828.9	825.9	821.4	816.6	809.5	799.4	784.9
328.15 K, 10000 kPa	839.1	836.9	835.8	832.9	829.9	825.5	820.6	813.9	803.9	789.6
328.15 K, 15000 kPa	842.7	840.5	839.4	836.6	833.7	829.3	824.5	817.8	808	793.9
328.15 K, 20000 kPa	846.3	844.1	843	840.3	837.3	833	828.4	821.6	811.9	798.1

C=CC(C)(O)CCC=C(C)C (stereo not given) [3,7-dimethyl-1,6-octadien-3-ol] + CCCO
mass density [kg/m3]
Details	x2 = 0	x2 = 0.107	x2 = 0.206	x2 = 0.3066	x2 = 0.4064	x2 = 0.501	x2 = 0.6034	x2 = 0.7055	x2 = 0.7985	x2 = 0.898
283.15 K, 100 kPa	869.5	867	864.9	862.1	859	855.4	850.3	843.7	835.9	825.2
283.15 K, 5000 kPa	872.6	870.2	868.1	865.4	862.2	858.6	853.6	847	839.3	828.8
283.15 K, 10000 kPa	875.7	873.1	871	868.3	865.2	861.6	856.7	850	842.4	832
283.15 K, 15000 kPa	878.7	876.2	874.1	871.4	868.3	864.8	859.9	853.3	845.8	835.5
283.15 K, 20000 kPa	881.5	879	876.9	874.4	871.3	867.7	862.8	856.3	848.8	838.6
298.15 K, 100 kPa	857.3	854.8	852.7	849.9	846.8	843.2	838.2	831.6	824	813.4
298.15 K, 5000 kPa	860.6	858.1	856	853.3	850.2	846.7	841.7	835.1	827.7	817.2
298.15 K, 10000 kPa	863.9	861.4	859.4	856.6	853.6	850.1	845.2	838.7	831.2	820.8
298.15 K, 15000 kPa	867	864.6	862.6	859.9	856.8	853.3	848.5	842	834.6	824.4
298.15 K, 20000 kPa	870	867.7	865.6	863	859.9	856.5	851.6	845.2	837.9	827.8
313.15 K, 100 kPa	844.5	842.1	840.1	837.3	834.1	830.5	825.6	819.1	811.6	801.2
313.15 K, 5000 kPa	848.2	845.8	843.8	841.1	837.9	834.4	829.5	823.1	815.6	805.3
313.15 K, 10000 kPa	851.6	849.3	847.3	844.6	841.5	838	833.2	826.8	819.4	809.2
313.15 K, 15000 kPa	855	852.8	850.8	848.1	845.1	841.5	836.7	830.4	823.2	813.1
313.15 K, 20000 kPa	858.4	856.1	854.1	851.5	848.4	844.9	840.2	833.9	826.7	816.7
328.15 K, 100 kPa	831.7	829.4	827.3	824.5	821.3	817.7	812.8	806.3	799	788.7
328.15 K, 5000 kPa	835.6	833.3	831.2	828.5	825.3	821.8	816.9	810.5	803.3	793.1
328.15 K, 10000 kPa	839.5	837.2	835.2	832.5	829.3	825.8	821	814.7	807.5	797.5
328.15 K, 15000 kPa	843.1	840.9	838.8	836.2	833	829.5	824.8	818.5	811.4	801.5
328.15 K, 20000 kPa	846.7	844.4	842.4	839.8	836.7	833.2	828.5	822.3	815.2	805.3
